Seven compounds from ChEMBL document CHEMBL1806424, “The novel 3,4-dihydropyrimidin-2(1H)-one urea derivatives of N-aryl urea: synthesis, anti-inflammatory, antibacterial and antifungal activity evaluation” (2011) can be followed below.

Each structure is given as a SMILES string. ≈ marks a conversion by molar mass, not a printed value. Calls of active or inactive are those of the source. The calls are words filed in the database; no cut-off is given here.

Experiment [1] deals with Staphylococcus aureus. In words: Antibacterial activity against Staphylococcus aureus. It counts as functional.
The subject of experiment [2] is Bacillus subtilis. In words: Antibacterial activity against Bacillus subtilis at 200 ug/ml. Type of experiment: functional, organism-based.
For experiment [3], the system named is Aspergillus flavus. In words: Antifungal activity against Aspergillus flavus at 200 ug/ml. It counts as functional, organism-based.
The subject of experiment [4] is Escherichia coli. Put plainly: Antibacterial activity against Escherichia coli. Type of experiment: functional.
Experiment [5] concerns Aspergillus niger. Put plainly: Antifungal activity against Aspergillus niger at 200 ug/ml. Type of experiment: functional, organism-based.
The test system of experiment [6] is THP-1. In words: Antiinflammatory activity in human THP1 cells assessed as inhibition of LPS-induced TNFalpha production at 10 uM treated 30 mins before LPS challenge measured after 24 hrs by ELISA. It counts as functional. (In general: In an ELISA, binding on a coated surface is turned into a signal by an enzyme label.)
For experiment [7], the system named is THP-1. Put plainly: Antiinflammatory activity in human THP1 cells assessed as inhibition of LPS-induced IL6 production at 10 uM treated 30 mins before LPS challenge measured after 24 hrs by ELISA. It counts as functional.
In experiment [8] the test system is Fusarium solani. In words: Antifungal activity against Fusarium solani. It counts as functional.
Experiment [9] concerns Salmonella typhimurium. In words: Antibacterial activity against Salmonella Typhimurium at 200 ug/ml. Conditions: Salmonella enterica subsp. enterica serovar Typhimurium. Type of experiment: functional, organism-based.
The test system of experiment [10] is Candida albicans. Put plainly: Antifungal activity against Candida albicans. It counts as functional.
For experiment [11], the system named is Bacillus subtilis. In words: Ratio of ciprofloxacin MIC to compound MIC for Bacillus subtilis. It counts as functional.
In experiment [12] the test system is Fusarium solani. Put plainly: Ratio of miconazole MIC to compound MIC for Fusarium solani. Type of experiment: functional.
Experiment [13] has as its system Aspergillus niger. In words: Antifungal activity against Aspergillus niger. Type of experiment: functional.
Experiment [14] concerns Aspergillus flavus. Put plainly: Ratio of miconazole MIC to compound MIC for Aspergillus flavus. It counts as functional.
Experiment [15] concerns Aspergillus niger. Put plainly: Ratio of miconazole MIC to compound MIC for Aspergillus niger. Type of experiment: functional.
Experiment [16] concerns Salmonella typhimurium. In words: Ratio of ciprofloxacin MIC to compound MIC for Salmonella Typhimurium. Type of experiment: functional, Salmonella enterica subsp. enterica serovar Typhimurium.
Experiment [17] concerns Salmonella typhimurium. In words: Antibacterial activity against Salmonella Typhimurium. It counts as functional, Salmonella enterica subsp. enterica serovar Typhimurium. Conditions: Salmonella enterica.
Experiment [18] deals with Bacillus subtilis. Put plainly: Antibacterial activity against Bacillus subtilis. Type of experiment: functional.
In experiment [19] the test system is Staphylococcus aureus. Put plainly: Ratio of ciprofloxacin MIC to compound MIC for Staphylococcus aureus. Type of experiment: functional.
Experiment [20] deals with Aspergillus flavus. In words: Antifungal activity against Aspergillus flavus. It counts as functional.
The subject of experiment [21] is Escherichia coli. Put plainly: Ratio of ciprofloxacin MIC to compound MIC for Escherichia coli. It counts as functional.
For experiment [22], the system named is Candida albicans. In words: Ratio of miconazole MIC to compound MIC for Candida albicans. Type of experiment: functional.
Experiment [23] has as its system Fusarium solani. In words: Antifungal activity against Fusarium solani at 200 ug/ml. Type of experiment: functional, organism-based.
The subject of experiment [24] is Escherichia coli. Put plainly: Antibacterial activity against Escherichia coli at 200 ug/ml. It counts as functional, organism-based.

As for `CCOC(=O)C1=C(C)NC(=S)NC1c1ccc(NC(=O)Nc2ccc(F)c(Cl)c2)cc1` (stereo not drawn), the minimum inhibitory concentration (MIC) against Staphylococcus aureus [1] stood at 60 µg/mL (≈ 130 µM); against Escherichia coli [4], 85 µg/mL (≈ 184 µM); against Fusarium solani [8] it was 95 µg/mL (≈ 205 µM); with Candida albicans [10] it was 80 µg/mL (≈ 173 µM). In addition, the result in the experiment with Bacillus subtilis [2], in the experiment on Aspergillus flavus [3], with Aspergillus niger [5] and in the experiment on Salmonella typhimurium [9] was inactive. Also, the inhibition at 10 µM stood at 3% in the experiment with THP-1 [6] and 40% in the experiment with THP-1 [7].

Regarding `CCOC(=O)C1=C(C)NC(=S)NC1c1ccc(NC(=O)Nc2ccccc2Cl)cc1` (stereo not drawn), the MIC against Staphylococcus aureus [1] came out at 10 µg/mL (≈ 22.5 µM); in the experiment on Aspergillus niger [13], 15 µg/mL (≈ 33.7 µM); in the experiment on Escherichia coli [4] it was 10 µg/mL (≈ 22.5 µM); in the experiment with Salmonella typhimurium [17], 40 µg/mL (≈ 89.9 µM); with Bacillus subtilis [18], 20 µg/mL (≈ 44.9 µM); with Fusarium solani [8] it was 15 µg/mL (≈ 33.7 µM). Besides, the values for the minimal inhibitory concentration (MIC) in the experiment on Candida albicans [10] and against Aspergillus flavus [20] were 10 µg/mL (≈ 22.5 µM) and 30 µg/mL (≈ 67.4 µM), respectively. The Ratio in the experiment on Bacillus subtilis [11] worked out at 1.5; with Fusarium solani [12], 2.5; with Aspergillus flavus [14] it was 2.5; with Aspergillus niger [15], 2.5; in the experiment with Salmonella typhimurium [16], 1.5; with Staphylococcus aureus [19] it was 1.5. Further, the Ratio is reported as 1.5 in the experiment on Escherichia coli [21] and 2.5 in the experiment with Candida albicans [22]. Moreover, the inhibition at 10 µM in the experiment with THP-1 [6] came to 0%; with THP-1 [7] it was 43%.

On to `CCOC(=O)C1=C(C)NC(=S)NC1c1ccc(NC(=O)Nc2cc(F)cc(F)c2)cc1` (stereo not drawn), for which the MIC with Staphylococcus aureus [1] was determined as 90 µg/mL (≈ 202 µM); against Candida albicans [10], 95 µg/mL (≈ 213 µM). Moreover, the result in the experiment on Bacillus subtilis [2], in the experiment with Aspergillus flavus [3], with Aspergillus niger [5], in the experiment with Fusarium solani [23], in the experiment with Salmonella typhimurium [9] and with Escherichia coli [24] was inactive. Also, the inhibition at 10 µM is 62% in the experiment with THP-1 [6] and 86% in the experiment on THP-1 [7].

Consider `CCOC(=O)C1=C(C)NC(=S)NC1c1ccc(NC(=O)Nc2ccc(C)c(C)c2)cc1` (stereo not drawn), for which the MIC came to 90 µg/mL (≈ 205 µM) in the experiment on Staphylococcus aureus [1], 95 µg/mL (≈ 217 µM) against Bacillus subtilis [18] and 95 µg/mL (≈ 217 µM) against Candida albicans [10]. For the same compound, the result with Aspergillus flavus [3], with Aspergillus niger [5], in the experiment on Fusarium solani [23], in the experiment with Salmonella typhimurium [9] and with Escherichia coli [24] was inactive. Besides, the figures for the inhibition at 10 µM with THP-1 [6] and in the experiment with THP-1 [7] were 0% and 2%, respectively.

On to `CCOC(=O)C1=C(C)NC(=S)NC1c1ccc(NC(=O)Nc2c(Cl)cccc2C(F)(F)F)cc1` (stereo not drawn), for which the MIC in the experiment with Staphylococcus aureus [1] was 40 µg/mL (≈ 78 µM); in the experiment on Aspergillus niger [13], 65 µg/mL (≈ 127 µM); with Escherichia coli [4], 60 µg/mL (≈ 117 µM); with Salmonella typhimurium [17], 90 µg/mL (≈ 175 µM); in the experiment on Bacillus subtilis [18], 85 µg/mL (≈ 166 µM); in the experiment on Fusarium solani [8], 80 µg/mL (≈ 156 µM). For the same compound, the values for the MIC against Candida albicans [10] and against Aspergillus flavus [20] were 60 µg/mL (≈ 117 µM) and 55 µg/mL (≈ 107 µM), respectively. Also, the inhibition at 10 µM in the experiment on THP-1 [6] worked out at 0%; in the experiment with THP-1 [7] it was 39%.

Take `CCOC(=O)C1=C(C)NC(=S)NC1c1ccc(NC(=O)Nc2ccccc2C(F)(F)F)cc1` (stereo not drawn): the minimal inhibitory concentration (MIC) with Staphylococcus aureus [1] worked out at 25 µg/mL (≈ 52.2 µM); against Aspergillus niger [13], 40 µg/mL (≈ 83.6 µM); against Escherichia coli [4], 15 µg/mL (≈ 31.3 µM); against Salmonella typhimurium [17], 30 µg/mL (≈ 62.7 µM); in the experiment on Bacillus subtilis [18] it was 25 µg/mL (≈ 52.2 µM); with Fusarium solani [8], 30 µg/mL (≈ 62.7 µM). The minimum inhibitory concentration (MIC) with Candida albicans [10] came out at 25 µg/mL (≈ 52.2 µM); with Aspergillus flavus [20] it was 30 µg/mL (≈ 62.7 µM). For the same compound, the figures for the inhibition at 10 µM with THP-1 [6] and with THP-1 [7] were 10% and 27%, respectively.

Regarding `CCOC(=O)C1=C(C)NC(=S)NC1c1ccc(NC(=O)Nc2ccc(F)c(C)c2)cc1` (stereo not drawn), the MIC against Staphylococcus aureus [1] came to 65 µg/mL (≈ 147 µM); against Aspergillus niger [13], 95 µg/mL (≈ 215 µM); against Salmonella typhimurium [17], 90 µg/mL (≈ 203 µM); in the experiment with Bacillus subtilis [18], 90 µg/mL (≈ 203 µM); against Candida albicans [10] it was 80 µg/mL (≈ 181 µM); against Aspergillus flavus [20] it was 95 µg/mL (≈ 215 µM). In addition, the results for the inhibition at 10 µM with THP-1 [6] and in the experiment on THP-1 [7] were 0% and 16%, respectively. Also, the outcome in the experiment on Fusarium solani [23] and in the experiment with Escherichia coli [24] was inactive.

As usually defined, the MIC is the least concentration at which growth counts as inhibited. Higher therefore signals a need for much substance. Broadly, the inhibition is the change of the read-out against control, counted positive when it falls.
